# Patent publication US20220389058A1, “PEPTIDES AND COMPOSITIONS FOR USE IN COSMETICS AND MEDICINE” (LIPOTRUE, S.L., priority 2019, published 2022)
# What was measured:
# Type in all cases: cell-based, Human
# HEKa cells = test: Expression of genes related to epidermal cell cohesion, RT-qPCR in HEKa (Example 9); conditions: 0.01 mg/mL, 24 hours
# Description: (§1) A stock solution of the peptide was prepared in water at 1 mg/mL. Working solution was freshly prepared at the specified concentration from stock solution in the corresponding supplemented medium.
# RNA (ribonucleic acid) extraction and RT-qPCR (reverse transcription quantitative polymerase chain reaction) were performed. Briefly, HEKa cells were seeded in duplicate (n=2) in 6-well plates at a density of 4×10^5 cells/well and maintained at standard culture conditions (Medium Epilife supplemented with 1% (v/v) EDGS and 1% (v/v) penicillin/streptomycin; 37° C., 95% room humidity, 5% CO2) for 24 hours.
# Then, cells were treated with peptide Ac-SEQ ID NO: 1-NH2, Ac-SEQ ID NO: 2-NH2 or Ac-SEQ ID NO: 3-NH2 at the concentration of 0.01 mg/mL for 24 hours. Untreated cells were used as basal or negative control.
# (§2) Cells were finally lysed, and replicates were pooled together for RNA extraction using Qiagen RNeasy Mini kit following manufacturer's instructions. Purified RNAs were used to generate the corresponding cDNAs (complementary deoxyribonucleic acids) by reverse transcription using a commercial kit High capacity cDNA reverse transcription kit (Applied Biosystems) which served as templates for amplification. RT-qPCR was performed with the panel of appropriate TaqMan assay probes for genes shown in table 1 (plus GAPDH—Glyceraldehyde 3-phosphate dehydrogenase—that was used as housekeeping gene) and 2×gene expression Master Mix using StepOne plus Real-Time PCR instrument. Amplification included 40 cycles of: 15 seconds at 95° C. (denaturation) and 1 minute at 60° C. (Annealing and extension) (Arya, M., Shergill, I. S., Williamson, M., Gommersall, L., Arya, N., Patel, H. R. (2005) Basic principles of real-time quantitative PCR. Expert Rev. Mol. Diagn.; 5(2):209-19; and Jozefczuk, J. and Adjaye, J. (2011) Quantitative real-time PCR-based analysis of gene expression. Methods Enzymol. 500; 99-109).
# (§3) The obtained data was analysed using the ΔΔCt method, which provides the target gene expression values as fold changes in the treated sample compared with an untreated basal sample. Both samples were normalized with the relative expression of a housekeeping gene GAPDH (Glyceraldehyde 3-phosphate dehydrogenase).
# IL33 = IL33 expression modulation by RT-qPCR in HEKa cells (Example 7); conditions: 0.01 mg/mL, 24 hours
# Description: as §1
# RNA (ribonucleic acid) extraction and RT-qPCR (reverse transcription quantitative polymerase chain reaction) were performed. Briefly, HDFa and HEKa cells were seeded in duplicate (n=2) in 6-well plates at a density of 4×10^5 cells/well and maintained at standard culture conditions (106 Medium supplemented with 1% (v/v) LSGS for HDFa cells; Medium Epilife supplemented with 1% (v/v) EDGS and 1% (v/v) penicillin/streptomycin for HEKa cells; 37° C., 95% room humidity, 5% CO2) for 24 hours. Then, cells were treated with peptide Ac-SEQ ID NO: 1-NH2, Ac-SEQ ID NO: 2-NH2 or Ac-SEQ ID NO: 3-NH2 at the concentration of 0.01 mg/mL for 24 hours. Untreated cells were used as basal or negative control.
# as §2, with “the” for “the panel of”, “IL33” for “genes shown in table 1”, “Amplification included 40 cycles of: 15 seconds at 95° C. (denaturation) and 1 minute at 60° C.” left out
# The obtained data was analysed using the ΔΔCt method, which provides the target gene expression values as fold changes in the treated sample compared with an untreated basal sample. […]
# HDFa cells = test: Expression of genes related with collagen production and extracellular matrix, RT-qPCR in HDFa (Example 10); conditions: 0.01 mg/mL
# Description: as §1
# RNA (ribonucleic acid) extraction and RT-qPCR (reverse transcription quantitative polymerase chain reaction) were performed. Briefly, HDFa cells were seeded in duplicate (n=2) in 6-well plates at a density of 4×10^5 cells/well and maintained at standard culture conditions (106 Medium supplemented with 1% (v/v) LSGS; 37° C., 95% room humidity, 5% CO2) for 24 hours. Then, cells were treated with peptide Ac-SEQ ID NO: 1-NH2 at the concentration of 0.01 mg/mL for 24 and 48 hours. Untreated cells were used as basal or negative control.
# as §2, with “table 5” for “table 1”
# as §3
substance,measurement,setting,value
Ac-Arg-Arg-Gln-Met-Arg-Glu-NH2 (Ac-RRQMRE-NH2) [Ac-SEQ ID NO: 1-NH2],CDSN Fold change between treated cells and basal control,HEKa cells,1.46 Fold change
same,CLDN1 Fold change between treated cells and basal control,HEKa cells,1.57 Fold change
same,CLDN4 Fold change between treated cells and basal control,HEKa cells,2.64 Fold change
same,DSC2 Fold change between treated cells and basal control,HEKa cells,1.23 Fold change
same,DSP Fold change between treated cells and basal control,HEKa cells,1.28 Fold change
same,JUP Fold change between treated cells and basal control,HEKa cells,1.42 Fold change
same,OCLN Fold change between treated cells and basal control,HEKa cells,1.98 Fold change
same,PCDH1 Fold change between treated cells and basal control,HEKa cells,2.41 Fold change
same,PKP2 Fold change between treated cells and basal control,HEKa cells,1.72 Fold change
same,PPL Fold change between treated cells and basal control,HEKa cells,1.54 Fold change
same,TJP1 Fold change between treated cells and basal control,HEKa cells,1.25 Fold change
same,"IL33 gene expression, fold change in treated cells with regard to basal control",IL33,−4.58 fold change
same,COL3A1 Fold change between treated cells and basal control,HDFa cells; 24 hours,1.32 Fold change
same,LAMA1 Fold change between treated cells and basal control,HDFa cells; 24 hours,1.16 Fold change
same,TIMP2 Fold change between treated cells and basal control,HDFa cells; 24 hours,1.35 Fold change
same,MMP1 Fold change between treated cells and basal control,HDFa cells; 48 hours,−1.30 Fold change
same,MMP3 Fold change between treated cells and basal control,HDFa cells; 48 hours,−1.69 Fold change
